Laboratory results taken from patent publication US10907099B2, “Compound, composition, cured object, optically anisotropic body, and reflective film” (FUJIFILM Corporation, priority 2016, dated 2021).

How the values were obtained:
[1] = Measurement of light fastness (residual rate after ultraviolet irradiation); format: physicochemical; details: for Evaluation of light fastness: 5 mg in acetonitrile 20 ml, 1 cm quartz cell, ultraviolet light 3 J/cm^2, residual rate by liquid chromatography; for light fastness (in words): based on the results in Table 1
Experimental: Each (5 mg) of the compounds was dissolved in acetonitrile (20 ml), sealed in a 1 cm quartz cell, and the quartz cell was irradiated with ultraviolet light under a condition of 3 J/cm^2 using EXECURE 3000-W manufactured by HOYA-SCHOTT CORPORATION, so that a residual rate of each compound was measured. Amounts (masses) of each compound before and after light irradiation were calculated using liquid chromatography. In the table, “A” represents a residual rate of equal to or greater than 80%, “B” represents a residual rate of equal to or greater than 50% and less than 80%, and “C” represents a residual rate of less than 50%.

[2] = Solubility measurement in ethyl methyl ketone; format: physicochemical; details: concentration (% by mass) of compound completely dissolved in ethyl methyl ketone
Experimental: Ethyl methyl ketone was added dropwise to each of the compounds, and a concentration (% by mass) of the compound in the obtained ethyl methyl ketone solution in a case where the compound was completely dissolved in the solution was measured as “solubility”. It is intended that a higher numerical value of solubility indicates excellent solubility in ethyl methyl ketone.

In the case of `C=CC(=O)OCCCCOc1ccc(C#Cc2cc(C)c(NC(=O)C(=O)Nc3ccc(C#Cc4ccc(OCCCCOC(=O)C=C)cc4)cc3C(F)(F)F)c(C)c2)cc1` [Compound a-2], the “Evaluation of light fastness” value [1] is reported as “A (residual rate of equal to or greater than 80%)”, the “light fastness (in words)” value [1] is reported as “excellent in light fastness” and the “Solubility (MEK)” value [2] is reported as 14%.
With `C=CC(=O)OCCCCOc1ccc(C#Cc2ccc(NC(=O)C(=O)Nc3ccc(C#Cc4ccc(OCCCCOC(=O)C=C)cc4)cc3C(F)(F)F)c(C(F)(F)F)c2)cc1` [Compound a-1] the “Evaluation of light fastness” value [1] was “A (residual rate of equal to or greater than 80%)”, the “light fastness (in words)” value [1] was “excellent in light fastness” and the “Solubility (MEK)” value [2] was 2%.
For `C=CC(=O)OCCCCCCOc1ccc(C(=O)Oc2ccc(C#Cc3ccc(CCCCCCC)cc3)cc2)cc1` [Comparative Compound b-1, reference compound], the “Evaluation of light fastness” value [1] was “C (residual rate of less than 50%)” and the “light fastness (in words)” value [1] was “does not satisfy the desired requirement for light fastness”.
